Reference: patent US8765977B2, “Hydroxylated contrast enhancement agents and imaging method” (General Electric Company, priority 2010, dated 2014)

Test: Ascorbic acid oxidation assay
Type: physicochemical
Details: 20 μM chelate (30 mol %), 67 μM ascorbic acid in PBS, 45 minutes, FIG. 1
Method: The UV-Vis spectrum of an ascorbic acid solution (67 μM, 12 μg·mL-1) in phosphate buffered saline (PBS) (3 mL) was recorded. The absorbance intensity at λmax=265 nm was observed. An aliquot (30 μL) of iron chelate of ethylenediaminetetraacetic acid (FeEDTA) in PBS (2 mM, 0.7 mg·mL-1) was added to afford a catalytic quantity of FeEDTA (20 μM, 30 mol %) with respect to ascorbic acid. The absorbance intensity (λmax=265 nm) was recorded at intervals of 1 minute for a period of 45 minutes and the data normalized to the t0 absorbance. The experiment was then repeated identically using iron chelate complex FeHBEDP(OH)3 (20 μM, 30 mol %).

consumption of ascorbic acid: consumes ascorbic acid completely
Structure (SMILES): O=C([O-])CN(CCN(CC(=O)[O-])CC(=O)[O-])CC(=O)[O-].[Fe+3] [FeEDTA, iron chelate of ethylenediaminetetraacetic acid]
